A short description of data set [1]: Isothermal titration calorimetry of heparin into HBPA solution. The note with it: ITC, heparin titrated into HBPA in water, fit for a single type of binding site. The source says:
Isothermal titration calorimetry was used to titrate increments of heparin independently into both the HBPAs and measured the heat released upon binding as a function of the molar ratio. The data obtained was integrated and fitted to a nonlinear function as previously described (Fromm, J. R., et al, “Differences in the Interaction of Heparin with Arginine and Lysine and the Importance of These Basic-Amino-Acids in the Binding of Heparin to Acidic Fibroblast Growth-Factor” Arch. Biochem. Biophys. 323 (1997) 279) to obtain an association constant of 10^7 in both cases (see FIGS. 3E and 3F). Despite similarity in their binding constants, the binding interaction of HBPA-1 and HBPA-2 were energetically very different. […] Such results can be explained with reference to their respective structures. HBPA-1 has hydrophobic residues on the periphery of its peptide chain and the increase in entropy is possibly due to displacement of solvent water molecules from these residues upon heparin interaction.
Characterization of the self-assembly. […] The images were analyzed using the Leica LCS imaging software. […] A frequency sweep experiment was performed at 3% strain with a ten-minute wait time (both determined by independently performing an amplitude sweep and a time strain experiment) to obtain 17 data points between angular frequencies of 0.1 to 10 rad/s. […]
(In general: Isothermal titration calorimetry measures the heat released or taken up as one component is titrated into another.)

The nature of data set [2]: Solubility in water. It is filed as physicochemical.

Where a SMILES comes first, the peptide text is derived from it. The star is where a group is joined. Palmitoyl = CCCCCCCCCCCCCCCC(=O)*

Among the data in patent US7851445B2, “Angiogenic heparin-binding epitopes, peptide amphiphiles, self-assembled compositions and related methods of use” (Northwestern University, priority 2005, dated 2010) are association constant and solubility in water values, retold here.

Consider `CCCCCCCCCCCCCCCC(=O)N[C@@H](C)C(=O)N[C@@H](C)C(=O)N[C@@H](C)C(=O)N[C@@H](C)C(=O)NCC(=O)NCC(=O)NCC(=O)N[C@@H](CC(C)C)C(=O)N[C@@H](CCCNC(=N)N)C(=O)N[C@@H](CCCCN)C(=O)N[C@@H](CCCCN)C(=O)N[C@@H](CC(C)C)C(=O)NCC(=O)N[C@@H](CCCCN)C(=O)N[C@@H](C)C(N)=O` [HBPA-1] (Palmitoyl-AAAAGGGLRKKLGKA-NH2), for which the association constant in data set [1] is reported as 10^7. Further, the solubility in water result in data set [2] was “readily soluble in water”.
In the same order, the values of `CCCCCCCCCCCCCCCC(=O)N[C@@H](C)C(=O)N[C@@H](C)C(=O)N[C@@H](C)C(=O)N[C@@H](C)C(=O)NCC(=O)NCC(=O)NCC(=O)N[C@@H](CC(C)C)C(=O)N[C@@H](CC(C)C)C(=O)NCC(=O)N[C@@H](C)C(=O)N[C@@H](CCCNC(=N)N)C(=O)N[C@@H](CCCCN)C(=O)N[C@@H](CCCCN)C(=O)N[C@@H](CCCCN)C(N)=O` [HBPA-2] (Palmitoyl-AAAAGGGLLGARKKK-NH2) are 10^7 and “readily soluble in water”.
